Experimental data as given in ChEMBL document CHEMBL5120745, “LC-MS Identification, Isolation, and Structural Elucidation of Anti-HIV Tigliane Diterpenoids from Wikstroemia lamatsoensis” (J Nat Prod, 2021).

Columns and labels:
[1] = Cytotoxicity against human MT4 cells assessed as reduction in cell viability by CellTiter-Glo luminescence analysis; type: toxicity, cell-based
[2] = Selectivity index, ratio of CC50 for human MT4 cells to IC50 for antiviral activity against HIV-1 NL4-3 infected in human MT4 cells; type: toxicity, cell-based; settings: read-out: Ratio CC50/IC50
[3] = system: Human immunodeficiency virus 1; assay: Antiviral activity against HIV-1 NL4-3 infected in human MT4 cells assessed as inhibition of viral replication by Nano-Glo luciferase assay; type: functional, organism-based; settings: Human immunodeficiency virus 1, NL4-3, MT4

| Compound | CC50 [1] [nM] | selectivity ratio [2] | IC50 [3] [nM] |
| --- | --- | --- | --- |
| CCCCCCCC(=O)O[C@@]12[C@H](OC(=O)c3ccccc3)[C@@H](C)[C@]3(O)[C@@H]4C=C(C)C(=O)[C@@]4(O)[C@H](O)C(CO)=C[C@H]3[C@@H]1C2(C)C | > 41 | – | – |
| CCCCCCCC(=O)O[C@@]12[C@H](OC(=O)c3ccccc3)[C@@H](C)[C@@]3(O)[C@H]([C@@H]1C2(C)C)[C@@H](OO)C(CO)=C[C@]1(O)C(=O)C(C)=C[C@@H]31 | – | < 5 | – |
| C=C(C)[C@]12C[C@@H](COC(=O)c3ccccc3)[C@@]34OC5(O[C@@H]1[C@@H]3[C@@H]1O[C@]1(CO)[C@@H](O)[C@@]1(O)[C@H]4[C@H]([C@H](C)[C@@H]1OC(=O)c1ccccc1)[C@H](C)CCCCCC[C@H]5O)O2 | > 5 | – | 0.07 |
| CCCCCCCC(=O)O[C@@]12[C@H](OC(=O)c3ccccc3)[C@@H](C)[C@@]3(O)C(=C[C@](O)(CO)C[C@]4(O)C(=O)C(C)=C[C@@H]34)[C@@H]1C2(C)C | > 41 | – | > 41 |
| CCCCCCCC(=O)O[C@@]12[C@H](OC(=O)c3ccccc3)[C@@H](C)[C@@]3(O)[C@@H](C(=O)C(CO)=C[C@]4(O)C(=O)C(C)=C[C@@H]34)[C@@H]1C2(C)C | > 41 | – | – |
| CCCCCCCC(=O)O[C@@]12[C@H](OC(=O)c3ccccc3)[C@@H](C)[C@@]3(O)[C@H]([C@@H]1C2(C)C)[C@@H](O)C(CO)=C[C@]1(O)C(=O)C(C)=C[C@@H]31 | > 41 | – | > 41 |
| CCCCCCCC(=O)O[C@@]12[C@H](OC(=O)c3ccccc3)[C@@H](C)[C@@]3(O)[C@@H](C=C(CO)C[C@]4(O)C(=O)C(C)=C[C@@H]34)[C@@H]1C2(C)C | > 41 | – | 0.18 |
| CCCCCCCC(=O)O[C@@]12C[C@@H](C)[C@@]3(O)[C@H]([C@@H]1C2(C)C)[C@@H](OO)C(CO)=C[C@]1(O)C(=O)C(C)=C[C@@H]31 | > 41 | – | > 41 |
| CCCCCCCC(=O)O[C@@]12C[C@@H](C)[C@@]3(O)[C@@H](C(=O)C(CO)=C[C@]4(O)C(=O)C(C)=C[C@@H]34)[C@@H]1C2(C)C | > 41 | – | > 41 |
